{
  "source": "patent US20120027862A1",
  "about": "“Azelaic acid-comprising formulation with added pigment” (INTENDIS GMBH, priority 2010, published 2012)",
  "format_in_all_cases": "cell-based, human",
  "key": {"[1]": {"system": "IL-1β", "assay": "IL-1β in supernatants of UVB-irradiated HaCaT cells", "settings": "UVB 100 mJ irradiated, azelaic acid 20 mM, pigment 3%", "experimental": "(§1) HaCaT cells originate from a spontaneously immortalized permanent human keratinocyte cell line established by long-term cultivation of adult human keratinocytes under reduced calcium concentration and elevated temperature (Boukamp et al. J Cell Biol 106:761-771, 1988). HaCaT cells were propagated in culture medium. This consists of 88 ml DMEM/Ham's F12 w/o glutamine, 10 ml foetal calf serum, 1 ml penicillin/streptomycin solution with 10,000 units/ml and 1 ml of glutamine. […] HaCaT cells were sown in 6-well or 12-well plates at a cell number of 3×10^5 and 1.5×10^5 cells/well, respectively. The cells were cultivated to about 80% confluence in culture medium. 2 h prior to the intended UV irradiation, the cells were incubated with the above-mentioned substances. Immediately before the irradiation, the cells were washed 2× with PBS and irradiated therein. Irradiation was with UVB (spectrum: 280-360 nM, max. 320 nM) in a Waldmann-UVB source UV7002 at 100 mJ. After the UV irradiation, the cells were irradiated in culture medium in the presence and absence of the abovementioned substances. The cultures were stopped 24 h or 48 h after the UVB irradiation, and the supernatant was removed and centrifuged to remove debris and titanium dioxide-coated potassium aluminium silicate. All cultures were set up in triplicate. The supernatants were frozen at -80° C. until further use. The protein concentration was determined using a commercial kit from Meso Scale Discovery, Gaithersburg, Md., USA. The test was carried out in accordance with the instructions of the manufacturer (www.mesoscale.com). […] The samples were then washed once more, 150 μl of read buffer were pipetted into the mixture and the electrochemiluminescence was measured in an MSD Sector plate reader. […] The following cell cultures were prepared: • unirradiated HaCaTs • irradiated HaCaTs (100 mJ) • irradiated HaCaTs (100 mJ) in the presence of azelaic acid, • irradiated HaCaTs (100 mJ) in the presence of azelaic acid and titanium dioxide-coated potassium aluminium silicate The following reagents were used to treat the cells: • azelaic acid, Fluka, batch S3317131508B29, 20 mM • titanium dioxide-coated potassium aluminium silicate, Merck Darmstadt, batch W08012807X, 3% The following cytokines/chemokines were analyzed: • IL-1β • IL-6 • TNF-α • VEGF • MCP-1=CCL2 HaCaT cells were cultivated in triplicates, irradiated with 100 mJ UVB and then cultivated in the presence or absence of azelaic acid and, if appropriate, titanium dioxide-coated potassium aluminium silicate or the combination thereof for 24 or 48 h. […] The cytokines IL-1β (A), IL-6 (B), TNFα (C), VEGF (D) and MCP-1/CCL2 (E) were measured in the supernatant in triplicate after 24 (series I) and 48 h (series II) using Mesoscale. […]"}, "[2]": {"system": "IL-6", "assay": "IL-6 in supernatants of UVB-irradiated HaCaT cells", "settings": "UVB 100 mJ irradiated, azelaic acid 20 mM, pigment 3%", "experimental": "(§2) HaCaT cells originate from a spontaneously immortalized permanent human keratinocyte cell line established by long-term cultivation of adult human keratinocytes under reduced calcium concentration and elevated temperature (Boukamp et al. J Cell Biol 106:761-771, 1988). HaCaT cells were propagated in culture medium. This consists of 88 ml DMEM/Ham's F12 w/o glutamine, 10 ml foetal calf serum, 1 ml penicillin/streptomycin solution with 10,000 units/ml and 1 ml of glutamine. […] HaCaT cells were sown in 6-well or 12-well plates at a cell number of 3×10^5 and 1.5×10^5 cells/well, respectively. The cells were cultivated to about 80% confluence in culture medium. 2 h prior to the intended UV irradiation, the cells were incubated with the above-mentioned substances. Immediately before the irradiation, the cells were washed 2× with PBS and irradiated therein. Irradiation was with UVB (spectrum: 280-360 nM, max. 320 nM) in a Waldmann-UVB source UV7002 at 100 mJ. […] The protein concentration was determined using a commercial kit from Meso Scale Discovery, Gaithersburg, Md., USA. […] The samples were then washed once more, 150 μl of read buffer were pipetted into the mixture and the electrochemiluminescence was measured in an MSD Sector plate reader. […] The following cell cultures were prepared: • unirradiated HaCaTs • irradiated HaCaTs (100 mJ) • irradiated HaCaTs (100 mJ) in the presence of azelaic acid, • irradiated HaCaTs (100 mJ) in the presence of azelaic acid and titanium dioxide-coated potassium aluminium silicate The following reagents were used to treat the cells: • azelaic acid, Fluka, batch S3317131508B29, 20 mM • titanium dioxide-coated potassium aluminium silicate, Merck Darmstadt, batch W08012807X, 3% The following cytokines/chemokines were analyzed: • IL-1β • IL-6 • TNF-α • VEGF • MCP-1=CCL2 HaCaT cells were cultivated in triplicates, irradiated with 100 mJ UVB and then cultivated in the presence or absence of azelaic acid and, if appropriate, titanium dioxide-coated potassium aluminium silicate or the combination thereof for 24 or 48 h. […]"}, "[3]": {"system": "TNF-α", "assay": "TNF-α in supernatants of UVB-irradiated HaCaT cells", "settings": "UVB 100 mJ irradiated, azelaic acid 20 mM, pigment 3%", "experimental": "as §2"}, "[4]": {"system": "VEGF", "assay": "VEGF in supernatants of UVB-irradiated HaCaT cells", "experimental": "HaCaT cells originate from a spontaneously immortalized permanent human keratinocyte cell line established by long-term cultivation of adult human keratinocytes under reduced calcium concentration and elevated temperature (Boukamp et al. J Cell Biol 106:761-771, 1988). HaCaT cells were propagated in culture medium. This consists of 88 ml DMEM/Ham's F12 w/o glutamine, 10 ml foetal calf serum, 1 ml penicillin/streptomycin solution with 10,000 units/ml and 1 ml of glutamine. […] HaCaT cells were sown in 6-well or 12-well plates at a cell number of 3×10^5 and 1.5×10^5 cells/well, respectively. The cells were cultivated to about 80% confluence in culture medium. 2 h prior to the intended UV irradiation, the cells were incubated with the above-mentioned substances. Immediately before the irradiation, the cells were washed 2× with PBS and irradiated therein. Irradiation was with UVB (spectrum: 280-360 nM, max. 320 nM) in a Waldmann-UVB source UV7002 at 100 mJ. After the UV irradiation, the cells were irradiated in culture medium in the presence and absence of the abovementioned substances. The cultures were stopped 24 h or 48 h after the UVB irradiation, and the supernatant was removed and centrifuged to remove debris and titanium dioxide-coated potassium aluminium silicate. All cultures were set up in triplicate. The supernatants were frozen at -80° C. until further use. The protein concentration was determined using a commercial kit from Meso Scale Discovery, Gaithersburg, Md., USA. The test was carried out in accordance with the instructions of the manufacturer (www.mesoscale.com). After addition of the blocking solution to the plates precoated with scavenger antibodies, the samples were incubated for 1 h and then washed. […] After this time, the detection antibody was added for 1 h. The samples were then washed once more, 150 μl of read buffer were pipetted into the mixture and the electrochemiluminescence was measured in an MSD Sector plate reader. […] The following cell cultures were prepared: • unirradiated HaCaTs • irradiated HaCaTs (100 mJ) • irradiated HaCaTs (100 mJ) in the presence of azelaic acid, • irradiated HaCaTs (100 mJ) in the presence of azelaic acid and titanium dioxide-coated potassium aluminium silicate The following reagents were used to treat the cells: • azelaic acid, Fluka, batch S3317131508B29, 20 mM • titanium dioxide-coated potassium aluminium silicate, Merck Darmstadt, batch W08012807X, 3% The following cytokines/chemokines were analyzed: • IL-1β • IL-6 • TNF-α • VEGF • MCP-1=CCL2 HaCaT cells were cultivated in triplicates, irradiated with 100 mJ UVB and then cultivated in the presence or absence of azelaic acid and, if appropriate, titanium dioxide-coated potassium aluminium silicate or the combination thereof for 24 or 48 h. The supernatants were then used to measure proinflammatory cytokines. The cytokines IL-1β (A), IL-6 (B), TNFα (C), VEGF (D) and MCP-1/CCL2 (E) were measured in the supernatant in triplicate after 24 (series I) and 48 h (series II) using Mesoscale. What is shown are the mean values and also the respective individual values of the protein determinations."}, "[5]": {"system": "MCP-1", "assay": "MCP-1/CCL2 in supernatants of UVB-irradiated HaCaT cells", "settings": "UVB 100 mJ irradiated, azelaic acid 20 mM, pigment 3%", "experimental": "as §1"}, "[6]": {"system": "HaCaT cells", "assay": "Overall anti-inflammatory effect in UVB-irradiated skin cell cultures (HaCaT)", "settings": "addition of azelaic acid", "experimental": "HaCaT cells originate from a spontaneously immortalized permanent human keratinocyte cell line established by long-term cultivation of adult human keratinocytes under reduced calcium concentration and elevated temperature (Boukamp et al. J Cell Biol 106:761-771, 1988). HaCaT cells were propagated in culture medium. This consists of 88 ml DMEM/Ham's F12 w/o glutamine, 10 ml foetal calf serum, 1 ml penicillin/streptomycin solution with 10,000 units/ml and 1 ml of glutamine. […] HaCaT cells were sown in 6-well or 12-well plates at a cell number of 3×10^5 and 1.5×10^5 cells/well, respectively. The cells were cultivated to about 80% confluence in culture medium. 2 h prior to the intended UV irradiation, the cells were incubated with the above-mentioned substances. Immediately before the irradiation, the cells were washed 2× with PBS and irradiated therein. […] The protein concentration was determined using a commercial kit from Meso Scale Discovery, Gaithersburg, Md., USA. […] The samples were then washed once more, 150 μl of read buffer were pipetted into the mixture and the electrochemiluminescence was measured in an MSD Sector plate reader. […] The cytokines IL-1β (A), IL-6 (B), TNFα (C), VEGF (D) and MCP-1/CCL2 (E) were measured in the supernatant in triplicate after 24 (series I) and 48 h (series II) using Mesoscale. […]"}},
  "note": "Where “and” joins values, the source holds several entries; their conditions need not be identical. Equal values may be shown once.",
  "data": [
    {"smiles": "O=C(O)CCCCCCCC(=O)O", "note": "[Azelaic acid, azelaic acid]", "values": [
      {"measurement": "IL-1β in HACaT cell supernatants after 24 h, mean", "setting": "[1]; 24 h, mean n = 3", "result": 5.8, "unit": "pg/L"},
      {"measurement": "IL-1β in HACaT cell supernatants after 24 h, individual values #1-#3", "setting": "[1]; 24 h, single cultures", "result": "3.1 pg/l (2×) and 11.3 pg/l"},
      {"measurement": "IL-1β in HACaT cell supernatants after 48 h, mean", "setting": "[1]; 48 h, mean n = 3", "result": 10.4, "unit": "pg/L"},
      {"measurement": "IL-1β in HACaT cell supernatants after 48 h, individual values #1-#3", "setting": "[1]; 48 h, single cultures", "result": "7.2 pg/mL and 14.3 pg/mL and 9.7 pg/mL"},
      {"measurement": "IL-6 in HACaT cell supernatants after 24 h, mean", "setting": "[2]; 24 h, mean n = 3", "result": 44.3, "unit": "pg/L"},
      {"measurement": "IL-6 in HACaT cell supernatants after 24 h, individual values #1-#3", "setting": "[2]; 24 h, single cultures", "result": "24.7 pg/L and 70.9 pg/L and 37.4 pg/L"},
      {"measurement": "IL-6 in HACaT cell supernatants after 48 h, mean", "setting": "[2]; 48 h, mean n = 3", "result": 120.7, "unit": "pg/L"},
      {"measurement": "TNF-α in HACaT cell supernatants after 24 h, mean", "setting": "[3]; 24 h, mean n = 3", "result": 7.2, "unit": "pg/L"},
      {"measurement": "TNF-α in HACaT cell supernatants after 24 h, individual values #1-#3", "setting": "[3]; 24 h, single cultures", "result": "7.6 pg/L and 21.63 pg/L and 6.7 pg/L"},
      {"measurement": "TNF-α in HACaT cell supernatants after 48 h, mean", "setting": "[3]; 48 h, mean n = 3", "result": 30.0, "unit": "pg/L"},
      {"measurement": "VGEF in HACaT cell supernatants after 24 h, mean", "setting": "[4]; UVB 100 mJ irradiated, 24 h, azelaic acid 20 mM, pigment 3%, mean n = 3", "result": 692.4, "unit": "pg/L"},
      {"measurement": "VGEF in HACaT cell supernatants after 24 h, individual values #1-#3", "setting": "[4]; UVB 100 mJ irradiated, 24 h, azelaic acid 20 mM, pigment 3%, single cultures", "result": "633.4 pg/L and 1694.59 pg/L and 751.4 pg/L"},
      {"measurement": "VGEF in HACaT cell supernatants after 48 h, mean", "setting": "[4]; UVB 100 mJ irradiated, 48 h, azelaic acid 20 mM, pigment 3%, mean n = 3", "result": 3999.0, "unit": "pg/L"},
      {"measurement": "VGEF in HACaT cell supernatants after 48 h, individual values #1-#3", "setting": "[4]; UVB 100 mJ irradiated, 48 h, azelaic acid 20 mM, pigment 3%, single cultures", "result": "2950 pg/mL and 5810 pg/mL and 3240 pg/mL"},
      {"measurement": "effect on the endothelial growth factor VEGF", "setting": "[4]; keratinocytes, azelaic acid alone", "result": "leads to a reduction"},
      {"measurement": "MCP-1 in HACaT cell supernatants after 24 h, mean", "setting": "[5]; 24 h, mean n = 3", "result": 683.2, "unit": "pg/L"},
      {"measurement": "MCP-1 in HACaT cell supernatants after 24 h, individual values #1-#3", "setting": "[5]; 24 h, single cultures", "result": "520.8 pg/L and 908.9 pg/L and 619.9 pg/L"},
      {"measurement": "MCP-1 in HACaT cell supernatants after 48 h, mean", "setting": "[5]; 48 h, mean n = 3", "result": 1190.1, "unit": "pg/L"},
      {"measurement": "MCP-1 in HACaT cell supernatants after 48 h, individual values #1-#3", "setting": "[5]; 48 h, single cultures", "result": "1116.1 pg/L and 1279.9 pg/L and 1174.3 pg/L"},
      {"measurement": "induction of the inflammatory cytokines (IL-1β, IL-6, TNF-α) after irradiation of keratinocytes", "setting": "[6]", "result": "can be reduced"}
    ]}
  ]
}
